Test system: subjects with no history of cardiovascular disease, blood hs-CRP value of at least 1.0 mg/L
Test: Hisayama epidemiologic study: events by administration of statin drug and EPA in the high hs-CRP group
Type: in vivo, human
Excerpt: The Hisayama study is an epidemiologic study of cerebral stroke, cardiovascular disease, and the like that has been conducted with the residents of the town of Hisayama town (population, about 8,400) in Kasuya county of Fukuoka prefecture adjacent to Fukuoka city from 1961. The age and occupation distributions of the residents of Hisayama town were almost identical to those of Japan as a whole, and the residents can be regarded as an average group of Japanese people with substantially no bias. Features of the Hisayama study include participation of all residents (who are at least 40 years old), prospective cohort study, examination and home visit by the stuff of the study, consultation rate (at least 80%), autopsy rate (about 80%), and follow-up rate (at least 99%), and the most characteristic feature of this study is the high rate of autopsy. No diagnosis is more accurate than autopsy in finding out the accurate cause of the death, and the precision of the follow up study is also high. In addition, the Hisayama study periodically adds the residents who have reached 40 years old to the group every 5 years, and estimation of influence of the life style transition as well as change of risk factors was thereby enabled.
3,103 residents of 40 years old or older who were registered in 2002 were used for the subject excluding those who have history of cardiovascular disease and those with no data of EPA/AA ratio. Average follow-up period was 5.1 years.
The group with a blood hs-CRP value of at least 1.0 mg/L (high hs-CRP group) was extracted from the entire subjects. The blood hs-CRP value was quantitated by using a commercially available assay kit.
The high hs-CRP group was further divided into 4 groups by the administration and non-administration of the statin drug and the administration and non-administration of the EPA.
In the table, “statin (−)+EPA (−)” means that neither the statin drug nor the EPA was administered to a subject; “statin (+)+EPA (−)” means that the statin drug was administered but not the EPA; “statin (−)+EPA (+)” means that the statin drug was not administered despite the administration of the EPA; and “statin (+)+EPA (+)” means that both the statin drug and the EPA were administered. Furthermore, “event (−)” and “event (+)” […].

[1] = high hs-CRP group, EPA irrespective of statin, statin drug vs no statin within the group with no EPA
[2] = number of subjects, high hs-CRP group (hs-CRP ≧1.0 mg/L), average follow-up 5.1 years

CC/C=C\C/C=C\C/C=C\C/C=C\C/C=C\CCCC(=O)O [EPA, all-cis-5,8,11,14,17-icosapentaenoic acid]
Cerebral stroke event occurrence (in words) (entire subjects, irrespective of administration of the statin drug): no event occurred
Cardiovascular disease event occurrence (in words) [1]: no event occurred
Cerebral stroke event occurrence (in words) [1]: no event occurred
Coronary artery disease event occurrence (in words) [1]: no event occurred
Cardiovascular disease, Event (+) [2]: 0
Cardiovascular disease, Event (−) [2]: 4
Cerebral stroke, Event (+) [2]: 0
Cerebral stroke, Event (−) [2]: 4
Coronary artery disease, Event (+) [2]: 0
Coronary artery disease, Event (−) [2]: 4

— patent US9700538B2, “Cardiovascular disease primary prevention agent for patients having high blood levels of high-sensitivity C-reactive protein” (MOCHIDA PHARMACEUTICAL CO., LTD., priority 2012, dated 2017)
